According to PubChem BioAssay AID1963853 (Molecular Pharmacology Branch, DTP, NCI, 2024):
Where “and” joins values, the source holds several entries; their conditions need not be identical. Identical values can stand only once.

Test system: 266295-075-R-J1-PDC spheroid viability
Experiment: Anticancer human tumor 266295-075-R-J1-PDC patient-derived head and neck squamous carcinoma cell line growth inhibition [POLQ]
Conditions: spheroids with HUVEC and MSC; for viability, T/C: stronger effect = lower value
Method: Multicellular complex tumor spheroid response to Polymerase (POL) inhibitors (novobiocin, ART-558, RP6685) in combination with a variety of drugs and investigational agents in selected tumor cell lines
The POL inhibitors (novobiocin, ART-558, and RP6685) were evaluated both individually and in combination with standard of care and investigational anticancer small molecules within a complex spheroid model of solid tumors. . Complex spheroids include a stromal component modeled by human endothelial cells (HUVEC) and fibroblasts modeled by human mesenchymal stem cells (MSCs). The concentration ranges selected for each drug and investigational agent were based upon clinically achievable concentrations if the clinical Cmax of the agent was known.
Compounds. The drugs and investigational agents: novobiocin (NSC847541), ART-558 (NSC835418), RP-6685 (NSC848927), peposertib (NSC802822), ceralasertib (NSC780249), elimusertib (NSC800525), camonsertib (NSC841442), AZD-1390 (NSC803789), olaparib (NSC753686), talazoparib (NSC767125), rucaparib (NSC756644), sotorasib (NSC818433), MRTX-1133 (NSC836407), SN-38 (NSC673596), topotecan (NSC609699), epotoside (NSC141540), doxorubicin (NSC123127), gemcitabine (NSC613327), 5-fluorouracil (NSC19893), paclitaxel (NSC125973), vemurafenib (NSC761431), MSA-2 (NSC828583), SN-011 (NSC837082), adavosertib (NSC754352), prexasertib (NSC758257), carboplatin (NSC241240) and oxaliplatin (NSC266046), were obtained from the National Cancer Institute (NCI) Developmental Therapeutics Program Chemical Repository (21). The FDA-approved anticancer drug set is available from the Developmental Therapeutics Program at https://dtp.cancer.gov/organization/dscb/obtaining/. […] The stock solutions were prepared in dimethyl sulfoxide (DMSO, Sigma-Aldrich, St. Louis, MO, cat. D2650), except for the platinum compounds which were prepared in saline (Quality Biological, Gaithersburg, MD, cat. 114-055-101), at 800-fold the tested concentration and stored at -70 degrees C prior to their use. All drugs and investigational agents were tested over a range starting from a high concentration at or near the clinical Cmax and decreasing in half-log increments. If the clinical Cmax for an agent had not been determined, the highest concentration tested was 10 microM, except for SN-38, which was tested at a high concentration of 1 microM.
Cell Culture. All cells were maintained in an incubator at 37 degrees C and 5% CO2 with 95% humidity. The PDC lines were cultured according to standard operating procedures established by the NCI PDMR (https://pdmr.cancer.gov). Table 3 of the manuscript, lists the cell lines along with the number of the three cell types plated to form the mct-spheroids and media for tumor cell growth. After thawing, all PDC lines, except 997537-175-T-J1-PDC and 415267-285-R-J2-PDC, were cultured in Matrigel-coated flasks prepared with a working solution of 1X Ham's F-12 nutrient mix, without supplementation (Thermo Fisher Scientific, cat. 11765054), 100 U/mL penicillin-streptomycin (Thermo Fisher Scientific, cat. 15140122), and 2.5% Matrigel (Corning Inc., Corning, NY, cat. 354248) for the first three passages. The two PDC lines 997537-175-T-J1-PDC and 415267-285-R-J2-PDC were cultured on uncoated flasks. The 857933-349-R-J2-PDC line was cultured in 6C/Colon 1B media containing advanced DMEM/F-12 (Thermo Fisher Scientific, cat. 12634028), 10 mM HEPES (Thermo Fisher Scientific, cat. 15630080), 1X GlutaMAX supplement (Thermo Fisher Scientific, cat. 35050061), 0.1 mg/mL primocin (InvivoGen, San Diego, CA, cat. ant-pm-2), 10% defined fetal bovine serum, heat inactivated (HyClone Laboratories Inc., Logan, UT, cat. SH30070.03HI), 50% L-WRN conditioned media (ATCC, cat. CRL-3276), 1.25 mM N-Acetyl-L-cysteine (Sigma-Aldrich, cat. A9165), 10 mM nicotinamide (Sigma-Aldrich, cat. N0636), 1X B-27 supplement (Thermo Fisher Scientific, cat. 17504044), 1X N-2 supplement (Thermo Fisher Scientific, cat. […]
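Further: spheroids exposed to compounds for seven days before readout.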

Compound: COc1cccc2c1C(=O)c1c(O)c3c(c(O)c1C2=O)CC(O)(C(=O)CO)CC3OC1CC(N)C(O)C(C)O1 (stereo unspecified) + Nc1ccc(C#CCN(C(=O)Cc2ncc(C(F)(F)F)cc2C(F)(F)F)c2ccc(F)cc2)nn1
- IC50 (curve of first compound, second compound 0.0316 µM): 4.42 µM
- IC50 (curve of first compound, second compound 0.1 µM): 3.75 µM
- IC50 (curve of first compound, second compound 0.316 µM): 4.37 µM
- IC50 (curve of first compound, second compound 1 µM): 4.41 µM
- IC50 (curve of first compound, second compound 3.16 µM): 3.47 µM
- IC50 (curve of first compound, second compound 10 µM): 2.44 µM
- viability, T/C (second compound 0.0316 µM, first compound 0.0316 µM): 93%
- viability, T/C (second compound 0.0316 µM, first compound 0.1 µM): 106%
- viability, T/C (second compound 0.0316 µM, first compound 0.316 µM): 74.4%
- viability, T/C (second compound 0.0316 µM, first compound 1 µM): 83.8%
- viability, T/C (second compound 0.0316 µM, first compound 3.16 µM): 72.4%
- viability, T/C (second compound 0.0316 µM, first compound 10 µM): 2.33%
- viability, T/C (second compound 0.1 µM, first compound 0.0316 µM): 126%
- viability, T/C (second compound 0.1 µM, first compound 0.1 µM): 103%
- viability, T/C (second compound 0.1 µM, first compound 0.316 µM): 89.2%
- viability, T/C (second compound 0.1 µM, first compound 1 µM): 80.5%
- viability, T/C (second compound 0.1 µM, first compound 3.16 µM): 71.8%
- viability, T/C (second compound 0.1 µM, first compound 10 µM): 2.03%
- viability, T/C (second compound 0.316 µM, first compound 0.0316 µM): 119%
- viability, T/C (second compound 0.316 µM, first compound 0.1 µM): 106%
- viability, T/C (second compound 0.316 µM, first compound 0.316 µM): 74.2%
- viability, T/C (second compound 0.316 µM, first compound 1 µM): 96.6%
- viability, T/C (second compound 0.316 µM, first compound 3.16 µM): 72.9%
- viability, T/C (second compound 0.316 µM, first compound 10 µM): 1.67%
- viability, T/C (second compound 1 µM, first compound 0.0316 µM): 92.7%
- viability, T/C (second compound 1 µM, first compound 0.1 µM): 84.3%
- viability, T/C (second compound 1 µM, first compound 0.316 µM): 89.3%
- viability, T/C (second compound 1 µM, first compound 1 µM): 77.9%
- viability, T/C (second compound 1 µM, first compound 3.16 µM): 71.8%
- viability, T/C (second compound 1 µM, first compound 10 µM): 2.11%
- viability, T/C (second compound 3.16 µM, first compound 0.0316 µM): 103%
- viability, T/C (second compound 3.16 µM, first compound 0.1 µM): 102%
- viability, T/C (second compound 3.16 µM, first compound 0.316 µM): 73.9%
- viability, T/C (second compound 3.16 µM, first compound 1 µM): 74.2%
- viability, T/C (second compound 3.16 µM, first compound 3.16 µM): 64%
- viability, T/C (second compound 3.16 µM, first compound 10 µM): 1.77%
- viability, T/C (second compound 10 µM, first compound 0.0316 µM): 134%
- viability, T/C (second compound 10 µM, first compound 0.1 µM): 99.5%
- viability, T/C (second compound 10 µM, first compound 0.316 µM): 90.1%
- viability, T/C (second compound 10 µM, first compound 1 µM): 73.8%
- viability, T/C (second compound 10 µM, first compound 3.16 µM): 53.3%
- viability, T/C (second compound 10 µM, first compound 10 µM): 2.11%

Compound: CCCS(=O)(=O)Nc1ccc(F)c(C(=O)c2c[nH]c3ncc(-c4ccc(Cl)cc4)cc23)c1F
- viability, T/C (compound 0.0316 µM): 123% and 120% and 97.3%
- viability, T/C (compound 0.1 µM): 110% and 106% and 109%
- viability, T/C (compound 0.316 µM): 105% and 98.9% and 110%
- viability, T/C (compound 1 µM): 113% and 136% and 117%
- viability, T/C (compound 3.16 µM): 121% (2×) and 136%
- viability, T/C (compound 10 µM): 141% and 162% and 187%
- IC50 (curve of compound): > 10 µM

Compound: CC[C@@]1(O)C(=O)OCc2c1cc1n(c2=O)Cc2cc3c(CN(C)C)c(O)ccc3nc2-1
- viability, T/C (compound 0.000316 µM): 80.3% and 92.4% and 96.2%
- viability, T/C (compound 0.001 µM): 96.8% and 98.5% and 96.1%
- viability, T/C (compound 0.00316 µM): 80.3% and 78.6% and 92.5%
- viability, T/C (compound 0.01 µM): 80.8% and 95.8% and 96.8%
- viability, T/C (compound 0.0316 µM): 89.2% and 93.9% and 103%
- viability, T/C (compound 0.1 µM): 82.4% and 82.3% and 87.1%
- IC50 (curve of compound): > 0.1 µM
